Consider 3 compounds from patent US20050229260A1, “Compound screens relating to insulin deficiency or insulin resistance” (DevGen NV, priority 2000, published 2005).

One assay has as its target protein phosphatase 2A. The settings on record: protein phosphatase 2A inhibitor; cited from earlier work.
The next assay concerns PTP. The settings on record: PTP inhibitor; cited from earlier work.
The subject of assay [1] is C. elegans strain DR1564: daf-2(m41).
Protocol: All screening was done at 20 μM compound concentration in quadruplicates, except 2000 compounds of Diverset in triplicates. Confirmation was done at 4 concentrations. Questionable dose responses were repeated, if necessary at lower concentrations and/or 2 fold dilution steps. All worms that bypassed dauer stage, L4s and adults, were counted under a Leica MZ12 dissection scope and together referred to as number of adults per well. […] Data were transferred to Excel files and average and variance of the 8 controls of each plate calculated and plotted.
The number of wells was plotted against the number of adults per well and a negative binomial distribution fitted by maximum likelihood. […]
Then the number of adults per well where the cumulative negative binomial distribution was closest to 99% was determined and referred to as 1% cut-off. […]
The plates were then screened through quickly to find wells with a high number adults, which were counted and if found to reach the cut-off value the position on the lid was circled and the exact value written in the circle. […] Finally the transparent lids of the 4 replicate plates were stacked on top of each other and by looking through them it was determined whether 2 or more lids were circled in any position. […]

Structures are written as SMILES.

On to `CC1(C(=O)O)C2CCC(O2)C1(C)C(=O)O` (stereo not drawn) [Cantharidic acid], for which, on protein phosphatase 2A, the IC50 is 0.053 µM.
In the case of `CN(N=O)c1cc(O)ccc1O` [Dephostatin], in the assay on PTP, the IC50 is 7.7 µM.
`COC[C@H]1OC(=O)c2coc3c2[C@@]1(C)C1=C(C3=O)[C@@H]2CCC(=O)[C@@]2(C)C[C@H]1OC(C)=O` [Wortmannin]: in assay [1], the “active in the assay” value is recorded as “active”.
